This data set in a line: RP, Thermo Scientific Acclaim RSLC 120 C18, 100 × 2.1 mm, 2.2 µm, 30 °C, 0.2 mL/min, estimated dead time 1.1 min; A: 90% water + 10% methanol + 0.01% formic acid + 5 mM ammonium formate, pH 3.61; B: methanol + 0.01% formic acid + 5 mM ammonium formate, pH 3.61; gradient (min/%B) 0/1 1/1 2/39 13/99.9 15/99.9 15.1/1 20.1/1. The settings on record: stereoisomer not certain.
Regarding `CCCC1CC(C(=O)NC(C(C)O)C2OC(SC)C(O)C(O)C2O)N(C)C1` (configuration not stated) [Lincomycin], the LC retention time is 4.08 min.

As for `CN(C)S(N)(=O)=O` [N,N-Dimethylsulfamide], the LC retention time is 2.02 min.

For `CC=C1CC(C)C(O)(CO)C(=O)OCC2=CCN3CCC(OC1=O)C23` (configuration not stated) [Retrorsine], the LC retention time was 4.01 min.

As for `OCCN1CCN(CCC=C2c3ccccc3Sc3ccc(C(F)(F)F)cc32)CC1` [Flupentixol], the LC retention time is 10.2 min.

Take `COc1ccc(NS(=O)(=O)c2ccc(N)cc2)nn1` [Sulfamethoxypyridazine]: the LC retention time was 4.38 min.

`CC(N)Cc1cccc(C(F)(F)F)c1` (configuration not stated) [Fenfluramine-Nor]: the LC retention time was 5.91 min.

In the case of `CC1(C)OC2CC3C4CC(F)C5=CC(=O)C=CC5(C)C4C(O)CC3(C)C2(C(=O)CO)O1` (configuration not stated) [Flunisolide], the LC retention time is 9.01 min.

Take `CCOC(=O)CC(O)(CC(=O)OCC)C(=O)OCC` [Triethylcitrate]: the LC retention time is 6.94 min.

Turning to `CCOC(=O)C1=C(COCCN)NC(C)=C(C(=O)OC)C1c1ccccc1Cl` (configuration not stated) [Amlodipine], the LC retention time was 8.36 min.

Take `COC(=O)c1cccc(C)c1S(=O)(=O)NC(=O)Nc1nc(OCC(F)(F)F)nc(N(C)C)n1` [Triflusulfuron-methyl]: the LC retention time was 9.22 min.

Take `CCOc1ccccc1OC(c1ccccc1)C1CNCCO1` (configuration not stated) [Reboxetine]: the LC retention time is 7.28 min.

For `Cn1c(=O)c2c(ncn2CC(O)CO)n(C)c1=O` (configuration not stated) [Diprophylline], the LC retention time was 3.76 min.

On to `O=c1c(-c2ccc(O)cc2)coc2cc(O)cc(O)c12` [Genistein], for which the LC retention time was 7.7 min.

As to `COc1ccc(CC(C)N)c(OC)c1OC` (configuration not stated) [TMA], the LC retention time was 4.16 min.

As to `CC(C)N(CCc1c[nH]c2cccc(O)c12)C(C)C` [DIPT- 4-OH], the LC retention time was 4.34 min.

With `CCCCCCCCCCN(C)C` [N,N-Dimethyldecylamine], the LC retention time was 8.59 min.

On to `CCCN(CCC)C(=O)SCc1ccccc1` [Prosulfocarb], for which the LC retention time is 11.9 min.

For `CCOC(=O)C(CCc1ccccc1)NC1CCCN2CCCC(C(=O)O)N2C1=O` (configuration not stated) [Cilazapril], the LC retention time was 7.94 min.

As to `CNC(C)Cc1ccccc1` (configuration not stated) [Amphetamine-Methyl (methamphetamine)], the LC retention time is 4.21 min.

Regarding `CCCCN1CC(=O)N2C(Cc3c([nH]c4ccccc34)C2c2ccc3c(c2)OCO3)C1=O` (configuration not stated) [Tadalafil-n-Butyl], the LC retention time is 10.2 min.

In the case of `Cc1cc(NS(=O)(=O)c2ccc(N)cc2)on1` [Sulfamethoxazole (Impurity F)], the LC retention time is 4.39 min.

On to `O=c1oc2ccccc2c(O)c1C1CC(c2ccc(OCc3ccc(C(F)(F)F)cc3)cc2)Cc2ccccc21` (configuration not stated) [Flocoumafen], for which the LC retention time is 12.4 min.

`O=C(O)C(c1ccccc1Cl)N1CCc2sccc2C1` (configuration not stated) [Clopidogrel Carbon acid]: the LC retention time was 5.56 min.

For the molecule `c1ccc2c(c1)CCCC2C1=NCCN1` (configuration not stated) [Tetryzoline], the LC retention time was 4.47 min.

For the molecule `OC(Cc1ccccc1Cl)(Cn1[nH]cnc1=S)C1(Cl)CC1` (configuration not stated) [Prothioconazole], the LC retention time is 11.2 min.

Take `CN(Cc1cnc2nc(N)nc(N)c2n1)c1ccc(C(=O)NC(CCC(=O)O)C(=O)O)cc1` (configuration not stated) [Methotrexate]: the LC retention time is 3.96 min.

In the case of `COc1ccc2c3c1OC1C(OC(C)=O)=CCC4C(C2)N(C)CCC314` (configuration not stated) [Thebacon], the LC retention time was 4.47 min.

On to `C[N+](C)([O-])CCC(c1ccccc1)c1ccccn1` (configuration not stated) [Pheniramine N-Oxide], for which the LC retention time was 5.39 min.

Take `CCCCOC(=O)c1ccccc1C(=O)OCCCC` [Phthalate-Di-n-butyl]: the LC retention time was 12 min.

On to `CCCCCn1cc(C(=O)NC23CC4CC(CC(C4)C2)C3)c2ccccc21` [APICA], for which the LC retention time is 13.2 min.

For the molecule `CC(C)C(Br)C(=O)NC(N)=O` (configuration not stated) [Bromural (Bromisoval)], the LC retention time was 6.17 min.

Regarding `CCC(Oc1ccc(F)c(C(F)(F)F)c1)C(=O)NCc1ccccc1` (configuration not stated) [Beflubutamide], the LC retention time is 10.6 min.

As to `CN1CSC(=S)N(C)C1` [Dazomet], the LC retention time was 3.97 min.

As to `CC(=O)CC(c1ccc(Cl)cc1)c1c(O)c2ccccc2oc1=O` (configuration not stated) [Coumachlor], the LC retention time was 10.2 min.

Consider `Cc1nc([N+](=O)[O-])cn1CCO` [Metronidazole], for which the LC retention time was 3.58 min.

For the molecule `CC12C=CC3=C4CCC(=O)C=C4CCC3C1CCC2O` (configuration not stated) [Trenbolone], the LC retention time was 8.89 min.

As for `CC(C)(C)C(O)C(Cc1ccc(Cl)cc1)n1cncn1` (configuration not stated) [Paclobutrazole], the LC retention time was 9.49 min.

As to `O=C1NCCN1CCN1CCC(c2cn(-c3ccc(F)cc3)c3ccc(Cl)cc23)CC1` [Sertindole], the LC retention time is 9.26 min.

On to `O=C(OC1CN2CCC1CC2)N1CCc2ccccc2C1c1ccccc1` (configuration not stated) [Solifenacin], for which the LC retention time is 7.95 min.

Turning to `O=C(Nc1ccc(F)cc1F)c1cccnc1Oc1cccc(C(F)(F)F)c1` [Diflufenican], the LC retention time was 11.7 min.

For the molecule `CCC(C)(C)C(=O)OC1CC(C)C=C2C=CC(C)C(CCC3CC(O)CC(=O)O3)C21` (configuration not stated) [Simvastatin], the LC retention time is 12.6 min.

Take `CN1C2CCCC1CC(NC(=O)c1nn(C)c3ccccc13)C2` (configuration not stated) [Granisetron]: the LC retention time is 4.99 min.

Regarding `Cc1cc(Cl)ccc1N=CN(C)C` [Chlordimeform], the LC retention time is 4.64 min.

Take `CC(C)c1ccc(NC(=O)N(C)C)cc1` [Isoproturon]: the LC retention time was 8.32 min.

For the molecule `CC(C(=O)c1ccc2c(c1)OCO2)N1CCCC1` (configuration not stated) [MDPPP (3-4-Methylenedioxy-a-pyrrolidinopropiophenone)], the LC retention time was 4.13 min.

Regarding `CCN(CC)C(=O)SCc1ccc(Cl)cc1` [Thiobencarb], the LC retention time was 11.4 min.

`CC1CCCC(C)N1CCCC(O)(c1ccccc1)c1ccccn1` (configuration not stated) [Pirmenol]: the LC retention time is 6.01 min.

In the case of `CNC(=C[N+](=O)[O-])NCCSCc1ccc(CN(C)C)o1` [Ranitidine], the LC retention time was 3.14 min.

For the molecule `CCCSc1cc(OC)c(CCN)cc1OC` [2C-T-7], the LC retention time is 6.98 min.

On to `CN1CCC(N(Cc2ccccc2)c2ccccc2)CC1` [Bamipine], for which the LC retention time was 7.77 min.

In the case of `CCC(C)CC(C)N` (configuration not stated) [DMAA (Methylhexanamine)], the LC retention time was 4.68 min.

In the case of `O=C(O)CCCCn1cc(C(=O)c2cccc3ccccc23)c2ccccc21` [JWH-018-M-N-Pentanoic acid], the LC retention time was 9.71 min.

`CNC(=O)Oc1cccc2c1OC(C)(C)C2O` (configuration not stated) [Carbofuran-3-hydroxy]: the LC retention time is 5.09 min.

For the molecule `O=C(NCC1CCCCN1)c1cc(OCC(F)(F)F)ccc1OCC(F)(F)F` (configuration not stated) [Flecainide], the LC retention time is 6.44 min.

As for `CC(N)Cc1ccccc1F` (configuration not stated) [Amphetamine (2-F-)], the LC retention time is 4.24 min.

As for `Cc1cccc(C)c1NC(=O)c1cc(S(N)(=O)=O)c(Cl)cc1O` [Xipamide], the LC retention time is 7.36 min.

As for `CON(C)C(=O)Nc1ccc(Br)c(Cl)c1` [Chlorbromuron], the LC retention time was 9.55 min.

On to `CCCCC1C(=O)N(c2ccccc2)N(c2ccccc2)C1=O` [Phenylbutazone], for which the LC retention time is 8.98 min.

Turning to `OCCN1CCN(CCCN2c3ccccc3C=Cc3ccccc32)CC1` [Opipramol], the LC retention time is 7.83 min.

`CN(C)C1C(=O)C(C(N)=O)=C(O)C2(O)C(=O)C3=C(O)c4c(O)cccc4C(C)(O)C3CC12` (configuration not stated) [Tetracycline]: the LC retention time is 4.7 min.

`CCCOCC(=Nc1ccc(Cl)cc1C(F)(F)F)n1ccnc1` [Triflumizole]: the LC retention time was 11.8 min.

Consider `CCc1nn(C)c(C(=O)NCc2ccc(Oc3ccc(C)cc3)cc2)c1Cl` [Tolfenpyrad], for which the LC retention time is 12.4 min.

Take `CCc1cccc(CC)c1N(COC)C(=O)CCl` [Alachlor]: the LC retention time was 10.3 min.

On to `Cc1ccc(-c2c(Cl)nc(C#N)n2S(=O)(=O)N(C)C)cc1` [Cyazofamid], for which the LC retention time was 10.3 min.

For the molecule `CCC(c1cccc(O)c1)C(C)CN(C)C` (configuration not stated) [Tapentadol], the LC retention time was 5.01 min.

For `CC(C)NCC(O)COc1cccc2[nH]c3ccccc3c12` (configuration not stated) [Carazolol], the LC retention time is 5.49 min.

For `CN1CCCC(n2nc(Cc3ccc(Cl)cc3)c3ccccc3c2=O)CC1` (configuration not stated) [Azelastine], the LC retention time was 7.59 min.

For `O=C(CCCN1CCC(O)(c2ccc(Br)cc2)CC1)c1ccc(F)cc1` [Bromperidol], the LC retention time was 7.12 min.

Turning to `COc1ccc2cc(C(C)C(=O)O)ccc2c1` (configuration not stated) [Naproxen], the LC retention time was 8.99 min.

As for `CC(C)NCC(O)c1ccc(NS(C)(=O)=O)cc1` (configuration not stated) [Sotalol], the LC retention time is 2.96 min.

`Cc1ccc(C2(c3ccccc3)NC(=O)NC2=O)cc1` (configuration not stated) [MPPH (5-(p-Methylphenyl)-5-phenylhydantoin)]: the LC retention time was 8.12 min.

For the molecule `CC(=O)Oc1ccc(C(c2ccc(OC(C)=O)cc2)c2ccccn2)cc1` [Bisacodyl], the LC retention time is 8.92 min.

Consider `COP(=O)(OC)C(O)C(Cl)(Cl)Cl` (configuration not stated) [Trichlorfon (Dylox)], for which the LC retention time was 5.23 min.

On to `C#CC(C)OC(=O)Nc1cccc(Cl)c1` (configuration not stated) [Chlorbufam], for which the LC retention time was 9.27 min.

`CCCN(CCC)CCc1cccc2c1CC(=O)N2` [Ropinirole]: the LC retention time is 3.98 min.

With `CCOP(=S)(OCC)Oc1nc(Cl)n(C(C)C)n1` [Isazophos], the LC retention time is 9.87 min.

Take `c1ccc(C(c2ccccc2)C2CCCCN2)cc1` (configuration not stated) [Desoxypipradol]: the LC retention time is 6.3 min.

The record behind these values is the RepoRT retention time repository (doi:10.1021/acs.analchem.2c02893).
